“Also recorded” adds a separate entry of the source.
Key:
[1] = test system: 578 cancer cell lines; experiment: PRISM multiplexed cellular viability screening; format: cell-based; conditions: relation to FOXA1 / FOXA1 target expression across cell lines
Protocol: The instant discovery was made using large-scale multiplex profiling of existing drugs against 578 cancer cell lines, employing a PRISM multiplexed cellular viability assay.
Parental cell lines were obtained from the Cancer Cell Line Encyclopedia (CCLE) project (1). PRISM cell line barcoding, pooling, and screening was performed as previously described with several improvements to the original method (2). First, the lentiviral vector was modified to encode the unique barcode identifier at the end of the puromycin resistance gene. This enables barcodes to be detected using a variant of the mRNA capture and Luminex detection method developed for the L1000 gene expression assay (3). Second, a set of ten inert barcodes were spiked-in to each well of each plate after cell lysis to control for variation in PCR amplification as detailed below.
Luminex technology produced .Ixb files containing data for each Luminex bead observed during detection. These .Ixb files were processed to compute Median Fluorescence Intensity (MFI) values, calculated as the median of the values obtained for all beads corresponding to a single PRISM barcode.
MFI values were log-transformed (log MFI) and used to perform basic quality control. To detect probable screening artifacts, log MFI values were centered to the median log MFI for each cell line on each plate in order to put the measurements from each cell line on the same scale. For each well on each plate, the median of these centered values was then standardized according to the global median and global MAD across all plate wells in the same position. Data from wells with a standardized score of greater than 5 or less than −5 were excluded from all further processing steps.
For each cell line on each plate, the distribution of MFI values observed for the DMSO-treated negative controls was compared to that of the positive controls using a robust form of the Strictly Standardized Mean Difference (SSMD*)′. Specifically, SSMD* was calculated as: […]
Data corresponding to SSMD values less than 2 were removed before calculating cell viability.
The data in the instant disclosure were produced according to two different screening protocols. In the PR500 protocol, ten inert barcodes were spiked-in to each well of each plate after cell lysis. For data produced using the PR500 protocol, normalized MFI (nMFI) values were computed by taking the ratio of each MFI value against the median of the inert barcodes within each well. […]
Cell viability was calculated as the ratio of nMFI to the median of the nMFI from the DMSO-treated negative controls for each cell line on each plate. […] The final viability values were calculated as the median of the batch-corrected cell viabilities from biological replicates for each cell line, compound and dose. […]

[2] = test system: Twelve different breast cancer cell lines; experiment: adenosine receptor antagonists and agonists dosed on twelve breast cancer cell lines; format: cell-based; conditions: 32 adenosine receptor antagonists/agonists compared; FIG. 6B

## Nc1nc2ccc(Cl)cc2c2nc(-c3ccco3)nn12 [CGS-15943, reference compound]
[1]
  cell killing profile in PRISM: cell killing profile specific for such FOXA1-dependent cancer cell lines; also recorded: selective killing of FOXA1-high cancer cell lines
[2]
  cytotoxicity to breast cancer cell lines: cytotoxic
